The text below walks through data of US20110077272A1, “PULMONARY FORMULATIONS OF TRIPTANS” (Vectura Limited, priority 2008, published 2011).

Data set [1] in a line: Solubility in ethanol-based HFA 134a pMDI formulations. In kind it is physicochemical.
Data set [2] is described as follows: Preclinical pulmonary administration of sumatriptan, irritancy to the airways. It counts as in vivo.
For data set [3] the following is noted: intranasal route (Duquesnoy et al 1998); cited from earlier work.

With `CNS(=O)(=O)Cc1ccc2[nH]cc(CCN(C)C)c2c1` [sumatriptan succinate], the solubility entry in data set [1] was “low solubility”.

Regarding `CNS(=O)(=O)Cc1ccc2[nH]cc(CCN(C)C)c2c1` [sumatriptan], the respiratory changes entry was “not of degenerative nature” in data set [2] (1.9 mg/kg) and “degeneration occurred” in data set [2] (9 mg/kg). Also, the “coefficient of variation for Tmax” value in data set [3] is listed as 62.8%.
